Patent US20160193251A1, “METHOD FOR TREATING ALS VIA THE INCREASED PRODUCTION OF FACTOR H” (BioViva USA Inc., priority 2013, published 2016)

Assays:
ALS mouse model = conditions: cited from earlier work
stem cells from fat = assay: Reprogramming of harvested adipose stem cells by drug treatment; type: cell-based; conditions: harvested stem cells treated with the drug
Excerpt: Embodiments of the present invention include performing adult adipose derived stem cell therapy to treat patients with ALS. Amyelotrophic Lateral Sclerosis (ALS) is a fatal disease with no treatment options. Since ALS is a neurological disorder, it was believed that patients would need neural stem cells, not the mesenchymal type stem cells that we have obtained from harvested adipose tissue. But, because neural stem cells are difficult to attain for various physiological and regulatory reasons, a new technical approach that targets the conversion or reprogramming of mesenchymal type stem cells that are obtained from adipose tissue recovered from the same patient to be treated has been generated.
An examplary stem cell therapy involves the use of adipose derived stem cells, which are then incubated with Selegeline, which results in preinduction into motor neurons. Initially, adipose tissue or fat is harvested via a minimally invasive liposuction. Then the fat is processed to separate the vascular stromal fraction of stem cells. […] Once processed, the majority of stem cells are administered into the spine (spinal fluid) via a lumbar puncture. A small dilute fraction of cells are injected into a select muscle group. […] The techniques allowing for culturing of stem cells and the reintroduction will help increase stem cell numbers. […]

SOD1 rats = conditions: ex vivo gene delivery within muscles, midstages of the disease; cited from earlier work
[1] = previous studies; cited from earlier work

IGF-1: Insulin like growth factor 1
progression (ALS mouse model): delayed progression
survival (ALS mouse model): increased survival

C#CCN(C)[C@H](C)Cc1ccccc1 [Selegeline]
reprogramming of stem cells (stem cells from fat): able to reprogram the stem cells from fat into neural like cells

B1: GDNF: Glial derived neurotrophic factor; in b58 given by ex vivo gene delivery within muscles (protein, UniProt P39905 78-211, looked up)
Glial cell line-derived …: SPDKQMAVLPRRERNRQAAAANPENSRGKGRRGQRGKNRGCVLTAIHLNVTDLGLGYETKEELIFRYCSGSCDAAETTYDKILKNLSRNRRLVSDKVGQACCRPIAFDDDLSFLDDNLVYHILRKHSAKRCGCI
number of neuromuscular connections and motor neuron cell bodies (ALS mouse model): increased the number of neuromuscular connections and motor neuron cell bodies
number of neuromuscular connections and MN cell bodies (SOD1 rats): significantly increased the number of neuromuscular connections

B2: CNTF: a neurotrophic factor that is protective of neurons (protein, UniProt P26441 1-200, looked up)
Ciliary neurotrophic factor: MAFTEHSPLTPHRRDLCSRSIWLARKIRSDLTALTESYVKHQGLNKNINLDSADGMPVASTDQWSELTEAERLQENLQAYRTFHVLLARLLEDQQVHFTPTEGDFHQAIHTLLLQVAAFAYQIEELMILLEYKIPRNEADGMPINVGDGGLFEKKLWGLKVLQELSQWTVRSIHDLRFISSHQTGIPARGSHYIANNKKM
half life [1]: 2.9 min
